# Test results taken from patent US20060079573A1, “Methods and compositions for preventing vasospasm” (priority 2004, published 2006).
# Key:
# radial artery = conditions: cited from earlier work
# [1] = test system: radial and internal mammary arteries; conditions: cited from earlier work
# canine brachial arteries [2] = experiment: Contractile function of artery segments in organ chambers after WT soak; type: cell-based; conditions: for force of contraction in response to 5HT: 1 μM 5-HT; for force of contraction in response to NE: 1 μM NE; for force of contraction in response to U46: 3 μM U46619; for force of contraction in response to KCl: 60 mM KCl
# Description: Canine brachial arteries, equivalents of radial arteries in humans, were used in this study since they were more readily available and we could obtain longer segments than human radial arteries. Based on previous publications, it has been determined that the contractile and relaxation properties of these canine vessels are similar to the properties of human radial arteries in organ chamber studies [Corvera et al. (2003) Pretreatment with phenoxybenzamine attenuates the radial artery's vasoconstrictor response to α-adrenergic stimuli, J. Thorac. Cardiovasc. Surg., 126:1549-54; Velez et al., 2001]. The arteries were harvested as a pedicle graft and stored in 4° C. KH buffer (in mM/1: glucose 11; magnesium sulfate, 1.2; potassium phosphate 1.2; KCl, 4.7; sodium chloride 118; calcium chloride, 2.5) at pH 7.4 until ready for use.
# The vessels were carefully skeletonized, cut into 4-5 mm segments, and soaked in a 1 mM solution of WT in KH buffer and 10% DMSO (used to increase solubility of WT), pH 7.4 at 37° C. for 60 min. Control vessels were soaked in KH buffer with 10% DMSO only. The vessels were then rinsed well with KH to remove all unbound drug. For testing of contractile responses, the arterial segments were mounted on steel hooks in glass organ chambers (Radnoti Glass, Monrovia, Calif.) in KH buffer at pH 7.4 and 37° C., and continuously bubbled with a gas mixture of 95% O2 and 5% CO2. One steel hook was held stationary while the other was attached to a force transducer. Force generated by the vessels in response to various agonists was recorded using an analog-to-digital converter and SPECTRUM Cardiovascular Acquisition and Analysis software (Wake Forest University, Winston-Salem, N.C.). The vessel segments were allowed to stabilize at a baseline tension of 3 g for 60 min prior to testing the effect of various vasoconstrictor agents. During this time, the buffer was changed every 20 min. The total time from the end of WT treatment until contractile responses were tested was approximately 2 h. The contractile responses to 1 μM NE (α1 receptor-dependent, calcium-dependent), 1 μM 5-HT (serotonin receptor-dependent, calcium-independent), 3 μM U46 (thromboxane A2 receptor-dependent, calcium-independent), and 60 mM KCl (receptor-independent depolarizing agent) were then quantified. […] The order in which the constricting agents were administered was varied randomly in order to avoid the effects of one drug on another. […] The vessels were thoroughly washed and allowed to stabilize for 20 min between vasoconstrictor agents. The resting tension was adjusted to 3 g during each stabilization period.
# To test the duration of MLCK inhibition by the 60 min pre-treatment with 1 mM WT, a subset of vessels were harvested and treated with WT as above, then incubated in drug-free sterile culture medium [Dulbecco's modified eagle medium (Sigma, St Louis Mo.), with 10% newborn calf serum (Gibco, Inc.) and 1% penicillin-streptomycin] under sterile conditions for 48 h in an incubator aerated with 95% O2 and 5% CO2. The culture medium was changed every 12 h during this time. At the end of the 48 h period, the vessels were removed, rinsed with KH buffer, and contractile responses were tested as described above.
# canine brachial arteries [3] = experiment: Endothelial-independent smooth muscle relaxation to SNP after U46 pre-constriction; type: cell-based; conditions: 48 h after 1 mM WT; lower SNP concentrations (≦0.5 μM); pre-constricted with 3 μM U46; controls 87.49±2.91%
# Experimental: Cardiovasc. Surg., 126:179-85; van Son et al. (1992) Detrimental sequelae on the wall of the internal mammary artery caused by hydrostatic dilation with diluted papaverine solution, J. Thorac. Cardiovasc. Surg., 104:972-6]. Therefore, to test the vasorelaxation capacity of the vessels after treatment with WT, the vessels were pre-constricted with 3 μM U46, and then exposed to incrementally increasing concentrations (50 nM to […]) of SNP, a direct smooth muscle dilator.
# The capacity of the vascular smooth muscle to relax independently of the endothelium was evaluated by pre-constricting vessels with U46, followed by exposure to incrementally increasing concentrations of SNP, a direct smooth muscle relaxing agent. […] Two hours after soaking, control vessels relaxed 99.04±7.30% from their pre-constricted state in response to SNP.
# canine brachial arteries [4] = experiment: Histologic evaluation (H and E) of vessels for morphologic injury; type: cell-based; conditions: 48 h after 1 mM WT treatment and incubation
# Experimental: Prolonged storage in cell culture environments has the potential to cause cellular injury, which might impair smooth muscle function. To confirm that the lack of the observed contraction in WT-treated vessels was not a function of cellular damage, a subset of vessels was tested for histological signs of injury and apoptosis after treatment with WT and incubation for 48 h. For histology, formalin-fixed vessels were embedded in paraffin blocks, cut into sections for slide preparation, and stained with hematoxylin and eosin (H and E) prior to examination for signs of morphologic damage.
# canine brachial arteries [5] = experiment: TUNEL assay of endothelial and smooth muscle cell apoptosis in vessels; type: cell-based
# Experimental: Endothelial and smooth muscle cell apoptosis was evaluated using the terminal deoxynucleotidyl transferase (TdT)-mediated dUTP nick end labeling (TUNEL) method. In preparation for the TUNEL assay, the vessels were embedded in optimal cutting temperature compound (OCT, Sakura Finetek, Torrance, Calif.). Cryosections from frozen tissue were obtained using a Hacker-Bright cryostat and thaw-mounted onto Fisher-Plus slides (Fisher Scientific). Determination of apoptosis was performed using an in situ cell death detection kit (Roche Applied Science, Indianapolis, Ind.). DNA strand breaks were labeled with fluorescein-dUTP, followed by the addition of a secondary, antifluorescein antibody conjugated with alkaline phosphatase, a converter which generates a red color from Vector Red substrate. Folio wing counterstaining with hematoxylin and dehydration in graded alcohols, the number of apoptotic cells (indicated by red-stained nuclei) per high power field (HPF) was counted under light microscopy and is expressed as a percentage of the total number of nuclei per HPF.
compound,measurement,setting,value
COc1ccc(Cc2nccc3cc(OC)c(OC)cc23)cc1OC [papaverine],effect on contraction after washout (in words),radial artery; after the drug has been washed away,virtually no effect after the drug has been washed away
same,effect on endothelium (in words),[1],causes both impairment of endothelial function and endothelial cell apoptosis
"COC[C@H]1OC(=O)c2coc3c2[C@@]1(C)C1=C(C3=O)[C@@H]2CCC(=O)[C@@]2(C)C[C@H]1OC(C)=O [WT, Wortmannin]",force of contraction in response to 5HT,"canine brachial arteries [2]; 2 h after 60 min soak in 1 mM WT, control 9.64±0.67 g",0.92 ± 0.35 g
same,force of contraction in response to 5HT,"canine brachial arteries [2]; 48 h incubation after 1 mM WT soak, control 12.42±0.70 g",4.67 ± 0.39 g
same,force of contraction in response to NE,"canine brachial arteries [2]; 2 h after 60 min soak in 1 mM WT, control 7.22±0.37 g",0.19 ± 0.07 g
same,force of contraction in response to NE,"canine brachial arteries [2]; 48 h incubation after 1 mM WT soak, control 6.95±0.47 g",2.36 ± 0.17 g
same,force of contraction in response to U46,"canine brachial arteries [2]; 2 h after 60 min soak in 1 mM WT, control 10.99±0.50 g",1.25 ± 0.17 g
same,force of contraction in response to U46,"canine brachial arteries [2]; 48 h incubation after 1 mM WT soak, control 9.29±0.74 g",5.42 ± 0.34 g
same,force of contraction in response to KCl,"canine brachial arteries [2]; 2 h after 60 min soak in 1 mM WT, control 15.00±0.48 g",1.98 ± 0.27 g
same,force of contraction in response to KCl,"canine brachial arteries [2]; 48 h incubation after 1 mM WT soak, control 13.32±0.60 g",7.49 ± 0.48 g
same,contractile activity regained,canine brachial arteries [2]; 48 h after treatment,about 50%
same,reduction of contractile responses / vasoconstriction,canine brachial arteries [2]; at 48 h following washout,50%
same,relaxation response to SNP from pre-constricted state,canine brachial arteries [3],76.01±2.60%
same,"microscopic evidence of injury, endothelium and elastic lamina (H and E)",canine brachial arteries [4],appeared normal
same,"microscopic evidence of injury, smooth muscle (H and E)",canine brachial arteries [4],minimal hypereosinophilic staining in the smooth muscle
same,TUNEL-positive cells in the smooth muscle,"canine brachial arteries [5]; 48 h after WT treatment and incubation, control 0.35±0.16%",4.63±1.04%
same,TUNEL-positive cells in the endothelium,"canine brachial arteries [5]; 48 h after WT treatment and incubation, control 4.47±2.90%, P=0.058",16.88%±4.90
same,apoptotic nuclei in smooth muscle layer versus control,"canine brachial arteries [5]; FIG. 3, 400×",greater extent of apoptotic nuclei (black arrows) stained red by the TUNEL method in the smooth muscle layer of control vessels (A) as compared to WT-treated vessels
same,apoptotic nuclei in endothelium versus control,"canine brachial arteries [5]; FIG. 4, 400×",greater extent of apoptotic nuclei (black arrows) stained red by the TUNEL method in the endothelium of control vessels (A) as compared to WT-treated vessels
CC(COc1ccccc1)N(CCCl)Cc1ccccc1 (centres unmarked) [phenoxybenzamine],prevention of alpha-agonist-induced contractions (in words),radial artery; 48 h following treatment,effective in preventing alpha-agonist-induced contractions at 48 h following treatment
